Assay results published in patent US20220291236A1, “DETECTION OF DYSTROGLYCAN” (ML Bio Solutions Inc., priority 2021, published 2022).

System: alpha-dystroglycan (αDG)
Experiment: Multiplexed Western Blot of total αDG and glycosylated αDG in muscle lysates of P448L mutant FKRP mice untreated or treated with 5% Ribitol
Assay type: in vivo, mouse
Details: 5% Ribitol treated P488L mice compared to untreated P488L mice, heart muscle and TA lysates, region ~50-250 kDa
Method: Tissue samples were processed using a TissueLyzer IITM (Qiagen®). Approximately 250 milligrams (mg) of tissue was placed in a 2 mL microtube with a steel bead and 1 mL of Radioimmunoprecipitation assay buffer (RIPA) buffer supplemented with protease and phosphatase inhibitors. The microtubes were subjected to three cycles of disruption (2 minutes at 25 Hertz (Hz)) in the TissueLyzer IITM. Lysates were clarified by centrifugation and the supernatant was transferred to fresh tubes and lysate concentration was determined using a BCA assay (Pierce®). Polyacrylamide gel electrophoresis was carried out on 4-20% […] gels. […] The membrane was visualized on an Odyssey CLxTM imager (LiCorTM) and intensities of the 700 and 800 nm channels were recorded. […] Signal intensities were normalized to total protein and the ratio of 700 nm normalized signal/800 nm normalized signal was determined. Linear fits were assessed where applicable using the linear regression function of PrismTM. Statistical significance was determined using an unpaired t-test using PrismTM. 1) StainFree gel image is quantitated using ImageLabTM software to analyze the image from the ChemiDocTM Imaging System. […] Signal intensities were normalized to total protein and the ratio of 700 nm normalized signal/800 nm normalized signal was determined. Linear fits were assessed were applicable using a linear regression function. […]

OC[C@@H](O)[C@@H](O)[C@@H](O)CO [Ribitol, (2R,3s,4S)-Pentane-1,2,3,4,5-pentol]
αDG expression (total αDG signal) (normalized to C57 untreated control (FIG. 6B)): increased
ratio of glycosylated αDG to total αDG (normalized to C57 untreated control (FIG. 6C)): increased
